Measurements published in patent US12545890B2, “Compositions and methods for derivation of trophoblast stem cells” (North Carolina State University, priority 2019, dated 2026).

Experiments:
H1 and H9 hESCs [1] = assay: 6-day differentiation of hESCs to CTB-like cells in chemically defined medium, marker expression by qPCR and immunofluorescence; settings: for immunofluorescence expression of trophoblast/CTB markers in CTB-like cells: day 6, S1P or replacing agonist with BMP4 and SB431542 in E7 medium
H1 and H9 hESCs [2] = assay: differentiation of day-6 CTB-like cells to STB, analysed at day 14; settings: for formation of multinucleate STB expressing STB markers: agonist present during initial 6-day treatment, 14-day treatment; for formation of large multinucleated STB, compared among S1PR agonists: compared to the S1PR1 agonist
Description: (§1) Differentiation of hPSCs (6 days protocol). […] The medium was replaced every day.

H1 and H9 hESCs [3] = assay: differentiation of day-6 CTB-like cells to EVTs, analysed at day 12; settings: for formation of EVTs, expression of EVT markers HLA-G and VE-Cadherin: agonist present during initial 6-day treatment, 12-day treatment; for formation of mesenchymal EVTs, compared among S1PR agonists: relative to the S1PR2 agonist
Description: as §1

H9 and H1 hESCs = assay: 3-day differentiation of hESCs, quantitative image analysis of nuclear CDX2; assay type: cell-based, human; settings: day 3; BMP4 and SB431542 in E7 medium with S1PR3 agonist
Protocol: Differentiation of hPSCs to hPSC-TS^CDX2 and hPSC-TS cells. […] The medium was replaced every day. […] Alternatively, hPSCs after 2 or 3 days of differentiation were directly passaged into TSCM.
Immunofluorescence analysis.
Confocal image analysis. Image analysis was conducted using an image processing algorithm created in MATLAB. First, the DAPI stain was isolated, binarized, and processed to accurately represent the number of cells in each image. The primary-antibody stain of interest was isolated and processed in the same manner. Only primary-antibody pixels that overlap DAPI pixels were considered for analysis, and the average intensities of those pixels were measured and correlated to the nearest nuclei. This was performed for one control image and multiple experimental images. Each cell in the experimental images was considered positively stained if the average intensity of that cell was greater than the average intensity of all of the cells in the control image. Statistical analysis was done using a two-tailed t-test evaluating percent positive cells from different treatment periods.

[4] = day 6, qualitative immunofluorescence

Compound | immunofluorescence expression of trophoblast/CTB markers in CTB-like cells (H1 and H9 hESCs [1]) | formation of multinucleate STB expressing STB markers (H1 and H9 hESCs [2]) | formation of EVTs, expression of EVT markers HLA-G and VE-Cadherin (H1 and H9 hESCs [3]) | intensity of CDX2 and P63 expression, compared among S1PR agonists (H1 and H9 hESCs [1]; [4]) | intensity of CDX2 and P63 expression, compared among S1PR agonists (H1 and H9 hESCs [1]; day 6, qualitative immunofluorescence, listed as S1PR3 agonist) | formation of large multinucleated STB, compared among S1PR agonists (H1 and H9 hESCs [2]) | fraction of CDX2+ cells (H9 and H1 hESCs) | formation of mesenchymal EVTs, compared among S1PR agonists (H1 and H9 hESCs [3]) | gene expression of CTB markers CDX2 and ELF5 (H1 and H9 hESCs [1]; H1 and H9 hESCs, 6 days in E7 medium supplemented with S1P, with BMP4 and SB431542, compared to hESCs) | gene expression of neural and mesodermal markers (H1 and H9 hESCs [1]; H1 and H9 hESCs, after 6 days in E7 medium supplemented with S1P, with BMP4 and SB431542) | gene expression after 6 days of differentiation upon removal of S1P (H1 and H9 hESCs [1]; H9 and H1 hESCs, compared to 6-day treatment in the presence of S1P) | differentiation to STB in the absence of S1P (H1 and H9 hESCs [2]; S1P removed during initial 6-day treatment, syncytin and KRT7 staining) | formation of EVTs upon removal of S1P (H1 and H9 hESCs [3]; S1P removed during hESC differentiation to CTB-like cells, identical differentiation conditions) | nuclear P63 expression, compared among S1PR agonists (H1 and H9 hESCs [1]; [4])
CCCCCCCCCCCCCCC[C@@H](O)[C@@H](N)COP(=O)(O)O [dhS1P, D-erythro-dihydrospingosine-1-phosphate] | CTB-like cells showed expression of CDX2, GATA3, P63, and TEAD4 | STB expressing KRT7 and hCG | EVT expressing HLA-G and VE-Cadherin were obtained | – | – | – | – | – | – | – | – | – | – | –
O=C(c1cc(C2CC2)on1)N(C1CCCCC1)C1CCCCC1 [CYM5541] | Expression of CDX2, GATA3, P63, and TEAD4 was observed | formation of multinucleate STB expressing KRT7 and hCG | expression of the EVT markers HLA-G and VE-Cadherin | higher | high CDX2 expression | more pronounced | nearly all cells are CDX2^+ | enhanced formation of mesenchymal EVTs | – | – | – | – | – | –
CCCCCCCCCCCCC/C=C/[C@@H](O)[C@@H](N)COP(=O)(O)O [S1P, sphingosine-1 phosphate] | confirmed expression of the pan-trophoblast marker KRT7, and CTB markers P63 and GATA3 | formation of KRT7^+ multinucleate cells expressing the STB markers hCG and syncytin | expression of KRT7 and the EVT markers VE-Cadherin and HLA-G | – | – | – | – | – | upregulation of the CTB markers CDX2 and ELF5 was observed | no significant changes in markers associated with neural or mesodermal differentiation | downregulation of the CTB marker CDX2 and upregulation of transcripts of neural and mesoderm markers | did not occur | abolished formation of EVTs | –
CCOc1ccc(-c2nc(-c3cccc4c3CCC4NCCO)no2)cc1OCC.Cl (stereo not drawn) [CYM5442 hydrochloride] | Expression of CDX2, GATA3, P63, and TEAD4 was observed | formation of multinucleate STB expressing KRT7 and hCG | expression of the EVT markers HLA-G and VE-Cadherin | higher | – | – | – | enhanced formation of mesenchymal EVTs | – | – | – | – | – | strongest
Cc1cc(C(=O)Cn2cc(C#N)ccc2=O)c(C)n1Cc1ccccc1 [CYM5520] | Expression of CDX2, GATA3, P63, and TEAD4 was observed | formation of multinucleate STB expressing KRT7 and hCG | expression of the EVT markers HLA-G and VE-Cadherin | lower expression of CDX2, strong cytoplasmic expression of P63, and high heterogeneity in staining | – | more pronounced | – | – | – | – | – | – | – | –
